Tested on: recombinant T. cruzi proteins
Test: Luminex-based multiplex serological assay (IgG to recombinant T. cruzi proteins)
Format: in vivo, rhesus macaques (Macaca mulatta)
Details: treated animal T19
Procedure: Luminex-based multiplex serological assays were performed as previously described, [17]. For a number of smaller proteins, fusions of up to 2 individual genes are employed for some target proteins in order to expand the array of antibodies being detected while controlling costs and complexity of the assay. (TritrypDb.org identifiers: Tc1= fusion of TcBrA4_0116860 and TcYC6_0028190; Tc2= fusion of TcBrA4_0088420 and TcBrA4_0101960; Tc3 = fusion of TcBrA4_0104680 and TcBrA4_0101980; Tc4= fusion of TcBrA4_0028480 and TcBrA4_0088260; Tc5 = fusion of TcYC6_0100010 and TcBrA4_0074300; Tc7 = fusion of TcYC6_0083710 and TcBrA4_0130080; Tc8 = TcYC6_0037170; Tc11 = TcYC6_0124160; Tc17 = fusion of TcBrA4_0028230 and TcBrA4_0029760; Kn107 = TcCLB.508355.250; G10 = TcCLB.504199.20). Macaque antibody binding to individual beads in the Multiplex assays was detected with donkey anti-human IgG (H+L) conjugated to phycoerythrin (Jackson ImmunoResearch) in a 1:200 dilution.

SMILES: Cc1c(C(=O)N[C@H](C(=O)OCC2CCOCC2)C(C)C)ccc2c1B(O)OC2 [AN15368]
- IgG response to G10 (36) (2018-01-23): 14.8
- IgG response to Kn107 (20) (2018-01-23): 214.8
- IgG response to Tc1 (3) (2018-01-23): 4009.3
- IgG response to Tc2 (6) (2018-01-23): 590.8
- IgG response to Tc3 (11) (2018-01-23): -15.0
- IgG response to Tc4 (16) (2018-01-23): 80.0
- IgG response to Tc5 (22) (2018-01-23): 19.8
- IgG response to Tc7 (27) (2018-01-23): 2161.8
- IgG response to Tc8 (31) (2018-01-23): 13766.8
- IgG response to Tc11 (35) (2018-01-23): 289.0
- IgG response to Tc17 (51) (2018-01-23): 2186.0
- IgG response to Tc lysate (50) (2018-01-23): 2937.3
- IgG response to G10 (36) (2018-02-27): 83.0
- IgG response to Kn107 (20) (2018-02-27): -14.5
- IgG response to Tc1 (3) (2018-02-27): 2826.0
- IgG response to Tc2 (6) (2018-02-27): 413.5
- IgG response to Tc3 (11) (2018-02-27): 17.5
- IgG response to Tc4 (16) (2018-02-27): 111.0
- IgG response to Tc5 (22) (2018-02-27): 6.8
- IgG response to Tc7 (27) (2018-02-27): 1831.8
- IgG response to Tc8 (31) (2018-02-27): 11208.3
- IgG response to Tc11 (35) (2018-02-27): 163.8
- IgG response to Tc17 (51) (2018-02-27): 1943.5
- IgG response to Tc lysate (50) (2018-02-27): 1833.0
- IgG response to G10 (36) (2018-03-28): -25.5
- IgG response to Kn107 (20) (2018-03-28): 5.5
- IgG response to Tc1 (3) (2018-03-28): 1762.3
- IgG response to Tc2 (6) (2018-03-28): 386.3
- IgG response to Tc3 (11) (2018-03-28): 60.0
- IgG response to Tc4 (16) (2018-03-28): 6.0
- IgG response to Tc5 (22) (2018-03-28): 32.5
- IgG response to Tc7 (27) (2018-03-28): 1344.3
- IgG response to Tc8 (31) (2018-03-28): 8779.3
- IgG response to Tc11 (35) (2018-03-28): 66.5
- IgG response to Tc17 (51) (2018-03-28): 1378.0
- IgG response to Tc lysate (50) (2018-03-28): 1572.0
- IgG response to G10 (36) (2019-02-19): -6.3
- IgG response to Kn107 (20) (2019-02-19): 9.8
- IgG response to Tc1 (3) (2019-02-19): 1092.5
- IgG response to Tc2 (6) (2019-02-19): 189.8
- IgG response to Tc3 (11) (2019-02-19): 63.8
- IgG response to Tc4 (16) (2019-02-19): 9.0
- IgG response to Tc5 (22) (2019-02-19): 22.0
- IgG response to Tc7 (27) (2019-02-19): 910.3
- IgG response to Tc8 (31) (2019-02-19): 5960.0
- IgG response to Tc11 (35) (2019-02-19): 51.0
- IgG response to Tc17 (51) (2019-02-19): 927.0
- IgG response to Tc lysate (50) (2019-02-19): 1211.8
- IgG response to G10 (36) (2020-06-18): -46.3
- IgG response to Kn107 (20) (2020-06-18): 15.0
- IgG response to Tc1 (3) (2020-06-18): 454.3
- IgG response to Tc2 (6) (2020-06-18): 7.3
- IgG response to Tc3 (11) (2020-06-18): 76.3
- IgG response to Tc4 (16) (2020-06-18): 6.0
- IgG response to Tc5 (22) (2020-06-18): 2.0
- IgG response to Tc7 (27) (2020-06-18): 373.3
- IgG response to Tc8 (31) (2020-06-18): 3159.8
- IgG response to Tc11 (35) (2020-06-18): 48.5
- IgG response to Tc17 (51) (2020-06-18): 793.0
- IgG response to Tc lysate (50) (2020-06-18): 640.8
- IgG response to G10 (36) (2021-05-20): 11.0
- IgG response to Kn107 (20) (2021-05-20): 65.5
- IgG response to Tc1 (3) (2021-05-20): 42.3
- IgG response to Tc2 (6) (2021-05-20): -7.8
- IgG response to Tc3 (11) (2021-05-20): 3.8
- IgG response to Tc4 (16) (2021-05-20): -20.3
- IgG response to Tc5 (22) (2021-05-20): 1.5
- IgG response to Tc7 (27) (2021-05-20): 293.3
- IgG response to Tc8 (31) (2021-05-20): 1814.0
- IgG response to Tc11 (35) (2021-05-20): 133.3
- IgG response to Tc17 (51) (2021-05-20): 399.3
- IgG response to Tc lysate (50) (2021-05-20): 384.5

From PMC9519446, “Discovery of an Orally Active Benzoxaborole Prodrug Effective in the Treatment of Chagas Disease in Non-human Primates” (Nature microbiology, 2022)
